From patent US10464882B2, “Y-type discrete polyethylene glycol derivative and preparation method thereof” (JENKEM TECHNOLOGY CO., LTD. (BEIJING), priority 2015, dated 2019)
Like-named read-outs stand apart in the source and are kept apart here.

Experiments:
[1] = Comparison test of dispersion of cholesterol and cholesterol derivatives in water; assay type: physicochemical; settings: 20 mg in 50 mL water, 20° C. water bath, shaken vigorously every 5 min for 30 min
[2] = Comparison test of solubility of cholesterol derivatives in water (Chinese pharmacopoeia method); assay type: physicochemical
Procedure: The solubility of cholesterol derivatives in water was determined according to the method in “Chinese pharmacopoeia”: […] After 30 min, 1.5 mL water was further added, and the resulting mixture was placed in a 20° C. water bath with the same procedure for dissolution. Until 9 mL water was added, the solution was clear. […] After 30 min, 5 mL water was further added, and the resulting mixture was placed in a 20° C. water bath with the same procedure for dissolution until 25 mL water was added. 5 mL solution was taken from the dilute solution, the same procedure was carried out until 10 mL water was added, and the solution was clear.

Row | Structure (SMILES) | dispersion in water, naked eye observation [1] | solubility in water [2] [mg/100 g] | solubility in water ([2]; water, 20° C. water bath, shaken every 5 min for 30 min) [mg/100 g]
1 | COCCOCCOCCOCCOCCOCCOCCOC(=O)O[C@H]1CC[C@@]2(C)C(=CC[C@H]3[C@@H]4CC[C@H]([C@H](C)CCCC(C)C)[C@@]4(C)CC[C@@H]32)C1 [cholesterol derivative of mEG7-OH] | white emulsion | 4.61 | 
2 | CC(C)CCC[C@@H](C)[C@H]1CC[C@H]2[C@@H]3CC=C4C[C@@H](O)CC[C@]4(C)[C@H]3CC[C@]12C [cholesterol] | completely insoluble |  | < 0.2
